In patent US10392383B2, “3-(1H-benzo[d]imidazol-2-yl)-1H-pyrazolo[4,3-b]pyridines and therapeutic uses thereof” (Samumed, LLC, priority 2015, dated 2019):
pEC50: −log10 of the molar value.

Legend:
Format in all cases: cell-based
IL-6 (THP-1 cells) = assay: IL-6 inhibition in LPS-stimulated THP-1 monocytes (HTRF); settings: Homo sapiens, IL-6 HTRF; for pEC50: 500 ng/mL LPS, Table 6; for inhibition at 10 µM: LPS, Table 6, read-out: percent inhibition at 10 μM (given in parentheses for EC50 >10 μM)
Experimental: Human Monocyte Cell Culture: Human monocyte cell line (THP-1 cells; Catalog # TIB-202, ATCC, Manassas, Va.) were cultured in Roswell Park Memorial Institute (RPMI) 1640 Medium (Catalog #21870-100, Buffalo, N.Y.) with 1% L-glutamine, 1% HEPES, 1% Sodium Pyruvate, 2% Sodium Bicarbonate supplemented with 100 units/mL penicillin, 50 μg/mL streptomycin, 2-mercaptoethanol (0.05 mM) [basal medium] and 10% fetal bovine serum (Catalog #16140089, Life Technologies, Carlsbad, Calif.) at 37° C. and 5% CO2.
Compound Screening: THP-1 cells were cultured in basal media with 1% FBS for 24 hours before the start of the assay. Each compound was dissolved in DMSO as a 10 mM stock and used to prepare compound source plates. Serial dilution (1:3, 10-point dose-response curves starting from 10 μM) and compound transfer was performed using the ECHO 550 (Labcyte, Sunnyvale, Calif.) into 384-well white low volume assay plates (Greiner Bio-One) with appropriate DMSO backfill for a final DMSO concentration of 0.1%. THP-1 cells were plated at 5000 cells/well in the 384-well plates and incubated at 37° C. for 2 h. 500 ng/mL of LPS was added after 2 hours and cells were incubated for another 22 hours at 37° C. Plates were spun in a centrifuge for 1 minute at […] and a mixture of anti-IL6 XL665, and anti-IL6 Cryptate diluted in reconstitution buffer (Cisbio Inc.) was added to each well. Following incubation for 3 hrs at room temperature, Homogeneous Time-Resolved Fluorescence (HTRF) was measured using the Envision (Perkin Elmer) at 665 nm and […]. The ratio of fluorescence at 665 nm to 620 nm was used as a readout for IL6 quantification. All samples were processed in duplicate. Readings were normalized to DMSO treated cells and normalized activities were utilized for EC50 calculations using the dose-response log (inhibitor) vs. response-variable slope (four parameters) nonlinear regression feature available in GraphPad Prism 5.0 (or Dotmatics). For EC50 of >10 μM, the percent inhibition at 10 μM is provided.

SW480 colon cancer cells = assay: Cell viability assay (CellTiter-Blue) in SW480 cells; settings: Homo sapiens, 96 h, four days; for pEC50: CellTiter-Blue, 10 μM to 0.0045 μM; for inhibition at 10 µM: read-out: percent inhibition at 10 μM (given for EC50 of >10 μM)
Experimental: Representative compounds were screened using the following assay procedure to assess the effect on cell viability as described below.
Each compound was dissolved in DMSO as a 10 mM stock and used to prepare compound source plates. Serial dilution (1:3, 8-point dose-response curves from 10 μM to 0.0045 μM) and compound transfer was performed using the ECHO 550 (Labcyte, Sunnyvale, Calif.) into 96-well clear bottom, black-walled plates (Corning-Costar).
Approximately 2×10^3 SW480 colon cancer cells were seeded into each well and allowed to incubate in the presence or absence of compound for four days at 37° C./5% CO2. Eight replicates of DMSO-treated cells served as controls and cells treated with compound were performed in duplicate.
After incubation, 20 μL of CellTiter-Blue (Promega) was added to each well allowed to incubate for approximately 3 hours. This reagent was a buffered solution which contains resazurin, metabolically active cells were able to reduce rezarurin (blue) into resorufin (pink) which was highly fluorescent. This measured fluorescence was used as a readout for cell viability.
After incubation, the plates were read at Ex 560 nm Em 590 nm (Cytation 3, BioTek). Dose-response curves were generated and EC50 concentration values were calculated using non-linear regression curve fit in the GraphPad Prism (San Diego, Calif.) or Dotmatics' Studies Software (Bishops Stortford, UK). For EC50 of >10 μM, the percent inhibition at 10 μM is provided.

[1] = test system: primary human fibroblasts derived from IPF patients (LL29 cells) treated with TGF-β1; assay: Inhibition of the fibrotic process: αSMA staining in TGF-β1-treated LL29 fibroblasts; settings: Fibroblast; for pEC50: 96 h, LL29 fibroblasts treated with TGF-β1 (20 ng/mL), 4 days, Table 4; for inhibition at 10 µM: LL29 fibroblasts treated with TGF-β1, Table 4, read-out: percent inhibition at 10 μM (given in parentheses for EC50 >10 μM)
Excerpt: Representative compounds were screened using primary human fibroblasts (derived from IPF patients) treated with TGF-β1 to determine their ability to inhibit the fibrotic process.
Human Fibroblast Cell Culture: Primary human fibroblasts derived from IPF patients (LL29 cells) [^1Xiaoqiu Liu, et. al., “Fibrotic Lung Fibroblasts Show Blunted Inhibition by cAMP Due to Deficient cAMP Response Element-Binding Protein Phosphorylation”, Journal of Pharmacology and Experimental Therapeutics (2005), 315(2), 678-687; ^2Watts, K. L., et. al., “RhoA signaling modulates cyclin D1 expression in human lung fibroblasts; implications for idiopathic pulmonary fibrosis”, Respiratory Research (2006), 7(1), 88] were obtained from American Type Culture Collection (ATCC) and expanded in F12 medium supplemented with 15% Fetal Bovine Serum and Penicillin/Streptomycin.
Compound Screening: Each compound was dissolved in DMSO as a 10 mM stock and used to prepare compound source plates. Serial dilution (1:2, 11-point dose-response curves from 10 μM to […]) and compound transfer was performed using the ECHO 550 (Labcyte, Sunnyvale, Calif.) into 384-well clear bottom assay plates (Greiner Bio-One) with appropriate DMSO backfill for a final DMSO concentration of 0.1%. LL29 cells are plated at 1,500 cells/well in 80 μL/well F12 medium supplemented with 1% Fetal Bovine Serum. One hour after addition of the cells, TGF-β1 (Peprotech; 20 ng/mL) was added to the plates to induce fibrosis (ref. 1 and 2 above). Wells treated with TGF-β1 and containing DMSO were used as controls. Cells were incubated at 37° C. and 5% CO2 for 4 days. Following incubation for 4 days, SYTOX green nucleic acid stain (Life Technologies [Thermo Fisher Scientific]) was added to the wells at a final concentration of 1 μM and incubated at room temperature for 30 min. Cells were then fixed using 4% formaldehyde (Electron Microscopy Sciences), washed 3 times with PBS followed by blocking and permeabilization using 3% Bovine Serum Albumin (BSA; Sigma) and 0.3% Triton X-100 (Sigma) in PBS. Cells were then stained with antibody specific to α-smooth muscle actin (αSMA; Abcam) (ref. 1 and 2 above) in 3% Bovine Serum Albumin (BSA; Sigma) and 0.3% Triton X-100 (Sigma) in PBS, and incubated overnight at 4° C. Cells were then washed 3 times with PBS, followed by incubation with Alexa Flor-647 conjugated secondary antibody (Life Technologies [Thermo Fisher Scientific]) and DAPI at room temperature for 1 hour. Cells were then washed 3 times with PBS and plates were sealed for imaging. αSMA staining was imaged by excitation at 630 nm and emission at 665 nm and quantified using the Compartmental Analysis program on the CellInsight CX5 (Thermo Scientific). Dead or apoptotic cells were excluded from analysis based on positive SYTOX green staining. % of total cells positive for αSMA were counted in each well and normalized to the average of 11 wells treated with TGF-β1 on the same plate using Dotmatics' Studies Software. The normalized averages (fold change over untreated) of 3 replicate wells for each compound concentration were used to create dose-responses curves and EC50 values were calculated using non-linear regression curve fit in the Dotmatics' Studies Software. For EC50 of >10 μM, the percent inhibition at 10 μM is provided.

Structure (SMILES)	pEC50 (IL-6 (THP-1 cells))	pEC50 (SW480 colon cancer cells)	pEC50 [1]	inhibition at 10 µM (IL-6 (THP-1 cells)) [%]	inhibition at 10 µM (SW480 colon cancer cells) [%]	inhibition at 10 µM [1] [%]
CC(C)Nc1cncc(-c2ccc3[nH]nc(-c4nc5c(-c6cccnc6)cccc5[nH]4)c3n2)c1 [Compound 96, N-Isopropyl-5-(3-(4-(pyridin-3-yl)-1H-benzo[d]imidazol-2-yl)-1H-pyrazolo [4,3-b]pyridin-5-yl)pyridin-3-amine]	5.76	5.05	5.92	–	–	–
c1ccc(CNCc2cncc(-c3ccc4[nH]nc(-c5nc6c(-c7cccnc7)cccc6[nH]5)c4n3)c2)cc1 [Compound 108, N-Benzyl-1-(5-(3-(4-(pyridin-3-yl)-1H-benzo[d]imidazol-2-yl)-1H-pyrazolo [4,3-b]pyridin-5-yl)pyridin-3-yl)methanamine]	5.67	5.50	5.60	–	–	–
Cc1ccncc1-c1ccc2[nH]nc(-c3nc4c(-c5ccncc5)cccc4[nH]3)c2n1 [Compound 117, 5-(4-Methylpyridin-3-yl)-3-(4-(pyridin-4-yl)-1H-benzo[d]imidazol-2-yl)-1H-pyrazolo[4,3-b]pyridine]	< 5.00	< 5.00	< 5.00	51.4	16.9	0
O=C(Cc1ccccc1)Nc1cncc(-c2ccc3[nH]nc(-c4nc5c(-c6ccncc6)cccc5[nH]4)c3n2)c1 [Compound 122, 2-Phenyl-N-(5-(3-(4-(pyridin-4-yl)-1H-benzo[d]imidazol-2-yl)-1H-pyrazolo [4,3-b]pyridin-5-yl)pyridin-3-yl)acetamide]	< 5.00	5.84	5.30	40.3	–	–
CCCC(=O)Nc1cncc(-c2ccc3[nH]nc(-c4nc5c(-c6ccncc6)cccc5[nH]4)c3n2)c1 [Compound 129, N-(5-(3-(4-(Pyridin-4-yl)-1H-benzo[d]imidazol-2-yl)-1H-pyrazolo[4,3-b]pyridin-5-yl)pyridin-3-yl)butyramide]	< 5.00	< 5.00	< 5.00	34.9	0	0
c1cc(-c2ccncc2)c2nc(-c3n[nH]c4ccc(-c5ccncc5)nc34)[nH]c2c1 [Compound 130, 5-(Pyridin-4-yl)-3-(4-(pyridin-4-yl)-1H-benzo[d]imidazol-2-yl)-1H-pyrazolo [4,3-b]pyridine]	< 5.00	< 5.00	5.97	48.7	23.4	–
O=C(Nc1cncc(-c2ccc3[nH]nc(-c4nc5c(-c6ccncc6)cccc5[nH]4)c3n2)c1)C1CCCCC1 [Compound 135, N-(5-(3-(4-(pyridin-4-yl)-1H-benzo[d]imidazol-2-yl)-1H-pyrazolo[4,3-b]pyridin-5-yl)pyridin-3-yl)cyclohexanecarboxamide]	< 5.00	< 5.00	< 5.00	32.4	1	0
CCNCc1cncc(-c2ccc3[nH]nc(-c4nc5c(-c6ccccn6)cccc5[nH]4)c3n2)c1 [Compound 146, N-((5-(3-(4-(Pyridin-2-yl)-1H-benzo[d]imidazol-2-yl)-1H-pyrazolo[4,3-b]pyridin-5-yl)pyridin-3-yl)methyl)ethanamine]	< 5.00	5.81	5.43	19.5	–	–
O=C(Nc1cncc(-c2ccc3[nH]nc(-c4nc5c(-c6ccccn6)cccc5[nH]4)c3n2)c1)c1ccccc1 [Compound 151, N-(5-(3-(4-(Pyridin-2-yl)-1H-benzo[d]imidazol-2-yl)-1H-pyrazolo[4,3-b]pyridin-5-yl)pyridin-3-yl)benzamide]	< 5.00	< 5.00	5.29	22	20.8	–
CCCCC(=O)Nc1cncc(-c2ccc3[nH]nc(-c4nc5c(-c6ccccn6)cccc5[nH]4)c3n2)c1 [Compound 159, N-(5-(3-(4-(Pyridin-2-yl)-1H-benzo[d]imidazol-2-yl)-1H-pyrazolo[4,3-b]pyridin-5-yl)pyridin-3-yl)pentanamide]	< 5.00	< 5.00	6.02	26.6	11	–
CCC(=O)Nc1cncc(-c2ccc3[nH]nc(-c4nc5c(N6CCCCC6)cccc5[nH]4)c3n2)c1 [Compound 169, N-(5-(3-(4-(Piperidin-1-yl)-1H-benzo[d]imidazol-2-yl)-1H-pyrazolo[4,3-b]pyridin-5-yl)pyridin-3-yl)propionamide]	6.79	< 5.00	6.80	–	41.4	–
CN(C)c1cncc(-c2ccc3[nH]nc(-c4nc5c(N6CCCCC6)cccc5[nH]4)c3n2)c1 [Compound 175, N,N-dimethyl-5-(3-(4-(piperidin-1-yl)-1H-benzo[d]imidazol-2-yl)-1H-pyrazolo[4,3-b]pyridin-5-yl)pyridin-3-amine]	5.53	5.22	5.33	–	–	–
